Measured values as given in patent US20210308089A1, “METHODS OF TREATING AND/OR PREVENTING VIRAL INFECTIONS AND/OR DISEASES CAUSED BY VIRUSES IN A SUBJECT IN NEED THEREOF” (priority 2020, published 2021).

System: patients of the REDUCE-IT and earlier EPA placebo-controlled trials
Test: Example 3: adverse events by risk ratio, icosapent ethyl vs placebo (candidate categories; infectious disease terms of interest)
Settings: R-I

In the case of `CC/C=C\C/C=C\C/C=C\C/C=C\C/C=C\CCCC(=O)OCC` [icosapent ethyl, eicosapentaenoic acid ethyl ester], the “AR: Bipolar Disease (AE table)” value is reported as 0.0%, the “AR: Blood CPK increased (AE table)” value is reported as 1.6% and the “AR: Blood glucose increased (AE table)” value is reported as 0.2%. For the same compound, the “AR: Bone Fractures (AE table)” value was 0.0%, the “AR: Bronchiectasis (AE table)” value was 0.1% and the “AR: Bronchitis chronic (AE table)” value was 0.2%. The “AR: CKD (AE table)” value was 1.3%, the “AR: COPD (AE table)” value was 2.7% and the “AR: Carotid bruit (AE table)” value was 0.4%. For the same compound, the “AR: Cholestasis (AE table)” value was 0.0%, the “AR: Chrohn's Disease (AE table)” value was 0.0% and the “AR: Cognitive Decline: Attention disorders and disturbances (AE table)” value was 0.0%. The “AR: Cognitive Decline: Cognitive and attention disorders and disturbances (AE table)” value was 0.0%, the “AR: Cough (AE table)” value was 5.9% and the “AR: Decreased Appetite (AE table)” value was 0.5%. For the same compound, the “AR: Deep Venous Thromboembolism (AE table)” value was 0.2%, the “AR: Depression: Depressed mood disorders and disturbances (AE table)” value was 2.9% and the “AR: Depression: Depressive disorders (AE table)” value was 2.8%. The “AR: Depression: Depressive disorders - Agitated depression (AE table)” value was 0.0%, the “AR: Depression: Depressive disorders - Depression (AE table)” value was 2.6% and the “AR: Depression: Depressive disorders - Major depression (AE table)” value was 0.0%. For the same compound, the “AR: Depression: Depressive disorders - Persistent depressive disorder (AE table)” value was 0.0%, the “AR: Depression: Mood alterations - Depressed mood (AE table)” value was 0.1% and the “AR: Depression: Mood alterations - Depressive symptom (AE table)” value was 0.0%. The “AR: Depression: Mood alterations with depressive symptoms (AE table)” value was 0.2%, the “AR: Dermatitis psoriasiform (AE table)” value was 0.0% and the “AR: Dermatitis, allergic (AE table)” value was 0.2%. The “AR: Diabetic Nephropathy (AE table)” value was 0.3%, the “AR: ESRD (AE table)” value was 0.1% and the “AR: Ear infection (AE table)” value was 0.9%. The “AR: Embolism and Thrombosis (AE table)” value was 1.2%, the “AR: Emphysema (AE table)” value was 0.4% and the “AR: Epilepsy (AE table)” value was 0.0%. The “AR: Erectile dysfunction (AE table)” value was 1.8%, the “AR: Furuncle (AE table)” value was 0.2% and the “AR: Gastroenteritis, viral (AE table)” value was 1.1%. The “AR: Gastroesophageal reflux (AE table)” value was 0.1%, the “AR: Gingivitis (AE table)” value was 0.2% and the “AR: Glomerulonephritis and Nephrotic Syndrome (AE table)” value was 0.0%. For the same compound, the “AR: Guttate psoriasis (AE table)” value was 0.0%, the “AR: Helicobacter infection (AE table)” value was 0.2% and the “AR: Hepatitis C (AE table)” value was 0.0%. The “AR: Herpes Zoster (AE table)” value was 1.8%, the “AR: Herpes simplex (AE table)” value was 0.2% and the “AR: Hyperglycemia (AE table)” value was 2.0%. For the same compound, the “AR: Hyperkalemia (AE table)” value was 1.1%, the “AR: Hypertension (AE table)” value was 8.1% and the “AR: Hypertensive Crisis (AE Table)” value was 0.9%. The “AR: Hypokalemia (AE table)” value was 2.0%, the “AR: Hypomagnesemia (AE table)” value was 0.9% and the “AR: Infected bite (AE table)” value was 0.1%. The “AR: Influenza (AE table)” value was 6.5%, the “AR: Influenza like illness (AE table)” value was 0.6% and the “AR: Jaundice cholestatic (AE table)” value was 0.0%. The “AR: Large intestine polyps (AE table)” value was 0.2%, the “AR: Limb Fractures and Dislocations (AE table)” value was 0.8% and the “AR: Lupus (AE table)” value was 0.0%. For the same compound, the “AR: Microalbuminuria (AE table)” value was 0.2%, the “AR: Migraine (AE table)” value was 0.2% and the “AR: Mucosal inflammation (AE table)” value was 0.1%. The “AR: Multiple Sclerosis (AE table)” value was 0.0%, the “AR: Muscle spasms (AE table)” value was 2.0% and the “AR: NASH (AE table)” value was 0.1%. The “AR: NASH for b/l NFS >0.675 (AE table)” value was 0.3%, the “AR: NASH+Hepatic Steatosis for NFS >0.675 (AE table)” value was 1,6% and the “AR: Nasopharyngitis, Mild Severity (AE table)” value was 7.7%. For the same compound, the “AR: Nephrolithiasis (AE table)” value was 2.0%, the “AR: Nephropathies (AE table)” value was 0.6% and the “AR: Nephrotic Syndrome (AE table)” value was 0.0%. For the same compound, the “AR: Orthopnea (AE table)” value was 0.1%, the “AR: PTSD (AE table)” value was 0.1% and the “AR: Pancytopenia (AE table)” value was 0.2%. For the same compound, the “AR: Pneumonia (AE table)” value was 6.6%, the “AR: Proteinuria (AE table)” value was 0.5% and the “AR: Psoriasis (AE table)” value was 0.5%. The “AR: Psoriatic Conditions (AE table)” value was 0.6%, the “AR: Psychosis: Psychotic disorder NEC (AE table)” value was 0.0% and the “AR: Pulmonary Edema (AE table)” value was 0.3%. For the same compound, the “AR: Respiratory Failure (AE table)” value was 0.5%, the “AR: Respiratory tract infection (AE table)” value was 1,2% and the “AR: Rheumatoid Arthritis (AE table)” value was 0.0%. For the same compound, the “AR: Rhinitis (AE table)” value was 0.5%, the “AR: Schizophrenia NEC (AE table)” value was 0.0% and the “AR: Sepsis (AE table)” value was 0.9%. The “AR: Severe chronic obstructive pulmonary disease (AE table)” value was 0.5%, the “AR: Severe dermatitis, allergic (AE table)” value was 0.1% and the “AR: Severe gastroenteritis (AE table)” value was 0.2%. The “AR: Severe sepsis (AE table)” value was 0.6%, the “AR: Severe systemic inflammatory response syndrome (AE table)” value was 0.1% and the “AR: Severe urinary tract infection (AE table)” value was 0.4%. For the same compound, the “AR: Systemic inflammatory response syndrome (AE table)” value was 0.1%, the “AR: Tooth infection (AE table)” value was 0.6% and the “AR: Ulcerative Colitis (AE table)” value was 0.0%. The “AR: Upper respiratory tract infection (AE table)” value was 7.7%, the “AR: Vascular hypertensive disorder (AE table)” value was 9.0% and the “AR: Viral infection (AE table)” value was 0.5%. The “AR: Vulvovaginal mycotic infection (AE table)” value was 0.2%, the “AR: Wheezing (AE table)” value was 0.7% and the “ARR: ADHD (AE table)” value was 0.0%. For the same compound, the “ARR: Allergic sinusitis (AE table)” value was −0.0%, the “ARR: Alzheimer's Disease (AE table)” value was 0.0% and the “ARR: Asthma (AE table)” value was 0.1%. The “ARR: Atelectasis (AE table)” value was −0.3%, the “ARR: Bipolar Disease (AE table)” value was −0.0% and the “ARR: Blood CPK increased (AE table)” value was −0.6%. For the same compound, the “ARR: Blood glucose increased (AE table)” value was −0.1%.
